Assay results from patent US20120258127A1 (priority 2010, published 2012).
Read-outs that look alike come from different tables or passages of the source.

What was measured:
[1] = tested on: CSFV reference strain Alfort 187; format: cell-based, porcine
[2] = tested on: CSFV isolate; set-up: species or system pigs; settings: pig, in vivo
[3] = tested on: PBMC from vaccinated and challenged pigs; format: cell-based

## N[C@H](Cc1c[nH]c2ccccc12)C(=O)O [D-tryptophan]
[1]
  Effect on IFN-γ mediated reduction in the proportion of CSFV infected cells: unaffected

## N[C@@H](Cc1c[nH]c2ccccc12)C(=O)O [L-tryptophan]
[1]
  Effect on IFN-γ mediated reduction in the proportion of CSFV infected cells: unaffected

## IFN-α
[1]
  Proportion of infected cells: eliminated the infection

## L-N-6-(1-iminoethyl)lysine hydrochloride
[1]; after 48 hours
  Effect on IFN-γ mediated reduction in the proportion of CSFV infected cells: unaffected

## LRAAMVEYSYIFLDEY [SEQ ID NO:2]
[2]
  Occurrence of symptoms of CSFV infection compared with control group: reduced occurrence of symptoms of CSFV infection
[3]
  Recognition of individual antigenic peptides (IFN-γ): recognition

## NIMARTDHPEPIQLAY [SEQ ID NO:3]
[2]
  Occurrence of symptoms of CSFV infection compared with control group: reduced occurrence of symptoms of CSFV infection
[3]
  Recognition of individual antigenic peptides (IFN-γ): recognition

## NKYFEPRDSYFQQYML [SEQ ID NO:1]
[2]
  Occurrence of symptoms of CSFV infection compared with control group: reduced occurrence of symptoms of CSFV infection
